Measured values reported in US20170334899A1, “AMINO-SUBSTITUTED ISOTHIAZOLES” (Bayer Pharma Aktiengesellschaft, priority 2014, published 2017).
Structures can show the parent of a compound that is named as a salt.

Target: T1, human kinase Mps-1 (Homo sapiens, UniProt P33981)
T1 construct: N-terminally GST-tagged human full length recombinant Mps-1 kinase; GST (N); purchased Invitrogen, Karslruhe, Germany PV4071
T1 sequence (P33981 1-857): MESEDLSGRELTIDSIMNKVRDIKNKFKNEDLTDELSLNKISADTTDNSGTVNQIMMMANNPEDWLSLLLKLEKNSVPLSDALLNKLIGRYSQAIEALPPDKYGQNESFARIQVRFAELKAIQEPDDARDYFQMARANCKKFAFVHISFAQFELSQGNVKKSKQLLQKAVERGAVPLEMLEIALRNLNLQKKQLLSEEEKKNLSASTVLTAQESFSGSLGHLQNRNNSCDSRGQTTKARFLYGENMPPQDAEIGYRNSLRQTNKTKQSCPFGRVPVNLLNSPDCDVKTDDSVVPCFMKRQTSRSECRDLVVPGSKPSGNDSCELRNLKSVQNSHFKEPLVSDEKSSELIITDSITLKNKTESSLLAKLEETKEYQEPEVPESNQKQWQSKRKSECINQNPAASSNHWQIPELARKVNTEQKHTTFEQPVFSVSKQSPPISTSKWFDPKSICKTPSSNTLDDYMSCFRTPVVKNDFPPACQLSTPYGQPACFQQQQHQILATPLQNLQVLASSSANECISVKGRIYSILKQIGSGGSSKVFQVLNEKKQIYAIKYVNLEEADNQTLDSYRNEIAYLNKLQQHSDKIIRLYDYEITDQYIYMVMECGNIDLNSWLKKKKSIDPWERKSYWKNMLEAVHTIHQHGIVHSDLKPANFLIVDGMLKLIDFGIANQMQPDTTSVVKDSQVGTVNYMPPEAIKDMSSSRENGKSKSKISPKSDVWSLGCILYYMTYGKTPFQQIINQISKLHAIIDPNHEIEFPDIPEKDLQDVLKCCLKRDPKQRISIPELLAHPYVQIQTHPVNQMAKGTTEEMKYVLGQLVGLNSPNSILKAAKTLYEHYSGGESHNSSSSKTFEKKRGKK
Assay: Mps-1 kinase assay (TR-FRET)
Format: biochemical
Conditions: Mps-1 TR-FRET kinase assay; avg; read-out: Mps1 avg (IC50 [mol/l])
Summary of the method: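 Inhibition normalised between uninhibited reaction (0%) and enzyme-free wells (100%), using the blank-corrected TR-FRET 665/620 nm ratio after EDTA stop. Reaction: ~0.5 nM GST-Mps-1 full length, 10 μM ATP, 1 μM biotin-peptide, 60 min at 22 °C, after 15 min compound pre-binding, pH 7.7.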

IC50 [µM]	SMILES
> 20	Cc1nsc(Nc2cnc3ccccc3n2)c1C(=O)Nc1ccc(N2CCOCC2)nc1 [Example 169, 3-methyl-N-[6-(morpholin-4-yl)pyridin-3-yl]-5-(quinoxalin-2-ylamino)-1,2-thiazole-4-carboxamide]
> 20	Cc1nsc(Nc2ccc(C#N)cn2)c1C(=O)Nc1ccc(N[C@@H](C)C(=O)OC(C)(C)C)nc1 [Example 170, tert-butyl N-{5-[({5-[(5-cyanopyridin-2-yl)amino]-3-methyl-1,2-thiazol-4-yl}carbonyl)amino]pyridin-2-yl}alaninate]
> 20	Cc1nsc(Nc2ccc(C#N)cn2)c1C(=O)Nc1ccc(NC2CCCN(C(=O)OC(C)(C)C)C2)nc1 (stereo not shown) [Example 171, tert-butyt 3-({5-[({5-[(5-cyanopyridin-2-yl)amino]-3-methyl-1,2-thiazol-4-yl}carbonyl)amino]pyridin-2-yl}amino)piperidine-1-carboxylate]
> 20	Cc1nsc(Nc2cnc3ccccc3n2)c1C(=O)Nc1ccc(NC2CC2)nc1 [Example 172, N-[6-(cyclopropylamino)pyridin-3-yl]-3-methyl-5-(quinoxalin-2-ylamino)-1,2-thiazole-4-carboxamide]
> 20	COc1ccc(NC(=O)c2c(C)nsc2Nc2ccc(C#N)cn2)c(N2CCOCC2)n1 [Example 173, 5-[(5-cyanopyridin-2-yl)amino]-N-[6-methoxy-2-(morpholin-4-yl)pyridin-3-yl]-3-methyl-1,2-thiazole-4-carboxamide]
≥ 20	Cc1nsc(Nc2cnc(C(F)(F)F)cn2)c1C(=O)Nc1ccc(F)c(OCC2CCCN(CC(F)F)C2)c1 (stereo not shown) [Example 335, N-(3-{[1-(2,2-difluoroethyl)piperidin-3-yl]methoxy}-4-fluorophenyl)-3-methyl-5-{[5-(trifluoromethyl)pyrazin-2-yl]amino}-1,2-thiazole-4-carboxamide]
≥ 20	Cc1nsc(Nc2cnc(C(F)(F)F)cn2)c1C(=O)Nc1ccc(OC2CCN(CCC(F)(F)F)CC2)nc1 [Example 426, 3-Methyl-5-{[5-(trifluoromethyl)pyrazin-2-yl]amino}-N-(6-{[1-(3,3,3-trifluoro-propyl)piperidin-4-yl]oxy}pyridin-3-yl)-1,2-thiazole-4-carboxamide, Salt with Hydrochloric Acid]

Second part, the compound before the results:

SMILES	IC50 [µM]
Cc1nsc(Nc2cnc(C(F)(F)F)cn2)c1C(=O)Nc1ccc(OC2CCN(CC(F)(F)F)CC2)c(F)c1 [Example 163, N-(3-fluoro-4-{[1-(2,2,2-trifluoroethyl)piperidin-4-yl]oxy}phenyl)-3-methyl-5-{[5-(trifluoromethyl)pyrazin-2-yl]amino}-1,2-thiazole-4-carboxamide]	> 20
Cc1nsc(Nc2cnc(C(F)(F)F)cn2)c1C(=O)Nc1ccc(OC2CCN(CC(F)F)CC2)c(F)c1 [Example 164, N-(4-{[1-(2,2-difluoroethyl)piperidin-4-yl]oxy}-3-fluorophenyl)-3-methyl-5-{[5-(trifluoromethyl)pyrazin-2-yl]amino}-1,2-thiazole-4-carboxamide]	> 20
Cc1nsc(Nc2cnc(C(F)(F)F)cn2)c1C(=O)Nc1ccc(C(=O)NC2CCN(CC(F)(F)F)CC2)cc1 [Example 165, 3-methyl-N-(4-{[1-(2,2,2-trifluoroethyl)piperidin-4-yl]carbamoyl}phenyl)-5-{[5-(trifluoromethyl)pyrazin-2-yl]amino}-1,2-thiazole-4-carboxamide]	> 20
Cc1nsc(Nc2cncc(C(F)(F)F)n2)c1C(=O)Nc1ccc(OCC2CCCN(C(=O)OC(C)(C)C)C2)nc1 (stereo not shown) [Example 166, tert-butyl 3-{[(5-{[(3-methyl-5-{[6-(trifluoromethyl)pyrazin-2-yl]amino}-1,2-thiazol-4-yl)carbonyl]amino}pyridin-2-yl)oxy]methyl}piperidine-1-carboxylate]	> 20
Cc1nsc(Nc2cncc(C(F)(F)F)n2)c1C(=O)Nc1ccc(C(=O)NC2CCN(CC(F)(F)F)CC2)cc1 [Example 167, 3-methyl-N-(4-{[1-(2,2,2-trifluoroethyl)piperidin-4-yl]carbamoyl}phenyl)-5-{[6-(trifluoromethyl)pyrazin-2-yl]amino}-1,2-thiazole-4-carboxamide]	> 20
Cc1nsc(Nc2cncc(C(F)(F)F)n2)c1C(=O)Nc1ccc(F)c(OC2CCN(C(=O)OC(C)(C)C)CC2)c1 [Example 168, tert-butyl 4-(2-fluoro-5-{[(3-methyl-5-{[6-(trifluoromethyl)pyrazin-2-yl]amino}-1,2-thiazol-4-yl)carbonyl]amino}phenoxy)piperidine-1-carboxylate]	> 20
